What was measured:
[1] = UV spectra in solution (MeOH-DMSO): λmax and molar extinction coefficient; assay type: physicochemical; conditions: for ε (molar extinction coefficient): at λmax, Lambert-Beer equation, in M-1 cm-1 (unit assumed); for λmax: solution in MeOH-DMSO, 290–400 nm
Protocol: We next investigated the protective potential against UV radiation of each compound. Specifically, in vitro tests were conducted to determine the parameters related to absorption in the UV spectrum and those fundamental to the relative evaluation of the filtering potential and thus candidature as possible UV sunscreen ingredients of the candidates under examination, including λ critical and SPF (sun protection factor). Since the SPF is correlated to the UV quantitative absorption of the substances, the wavelength of maximum absorption (λmax) and the molar extinction coefficient (ε) of the derivatives in solution (MeOH-DMSO) were evaluated (Figures S1 and S2, Supplementary Materials). The UV spectra of the compounds BZTidr1–6 and BZTcin1–5 were recorded in the UVA-UVB range (290–400 nm) to evaluate their profile and compare it to that of the PBSA, a commercial UVB filter that has a λmax of 302 nm. After this peak, the absorbance of PBSA drops, reaching almost zero in the 325 nm range, and thus not providing absorption in the UVA region.
Once the λmax of each derivative was established, the molar extinction coefficient ε was calculated by applying the Lambert-Beer equation (Table S1, Supplementary Materials): the higher this value, the greater the ability of the compound under examination to absorb UV radiation. […] The excellent values of BZTidr1, BZTidr2 and BZTidr3 are ascribed to the aforementioned hyperchromic shift. In regard to the BZTcin1–5 series, the molar extinction coefficients calculated were very high, and the best values were those of BZTcin1, BZTcin2 and BZTcin3, also attributable to the hyperchromic shift of the absorption spectra. For both series, the excellent absorption capacity of ultraviolet radiation can be traced back to the high π-type conjugation that characterizes them.

[2] = test system: HaCat keratinocytes; test: Cell growth inhibition assay, HaCat; assay type: cell-based, human; conditions: Homo sapiens, HaCaT; 24 h incubation, cell count
Protocol: All synthesized compounds were tested in order to evaluate their in vitro antiproliferative activity. The human melanoma Colo-38 cell line was selected as a tumor skin model, while the immortalized human HaCaT keratinocytes were chosen as a control for the evaluation of the cytotoxicity towards non-cancerous cells and of the selectivity towards tumor cell lines. […] The selectivity index (SI) was also calculated and is the ratio between the IC50 of a given compound towards the non-cancerous cell line and the IC50 of the same compound towards the tumor cell line.
Cell growth inhibition assays were carried out using human melanoma Colo-38 cells and skin HaCat keratinocytes cells. Human melanoma Colo-38 cells were kindly provided by Dr. Patrizio Giacomini (Laboratory of Immunology, Regina Elena Institute, Rome, Italy). HaCat cells were kindly provided by Istituto Zooprofilattico Sperimentale della Lombardia e dell’Emilia Romagna, Brescia, Italy. Cell lines were seeded using concentrations of 40,000 cells/mL and 25,000 cells/mL, respectively. Colo-38 cells were maintained in RPMI 1640, supplemented with 10% fetal bovine serum (FBS), penicillin (100 Units mL^−1), and streptomycin (100 µg mL^−1). HaCat cells were maintained in DMEM, supplemented with 10% fetal bovine serum (FBS), penicillin (100 Units mL^−1), streptomycin (100 µg mL^−1) and glutamine (2 mM); the incubation was performed at 37 °C in a 5% CO2 atmosphere. Tested compounds were dissolved in MeOH/DMSO (1:1) to obtain 50 mM stock solutions and diluted before cell treatment in MeOH 100%. The tested compounds were added at serial dilutions to the cell cultures (from 0.1 to 100 µM) and incubated for 24 h further. Cells were then harvested, suspended in physiological solution, and counted with a Z2 Coulter Counter (Coulter Electronics, Hialeah, FL, USA). The cell number/mL and the IC50 values were determined when untreated cells were in the log phase of cell growth. Cells treated with vehicles and untreated cells were placed in each plate.

[3] = DPPH radical scavenging test; conditions: mean ± SEM; for DPPH (% Inhibition): compound at 1 mg/mL, 30 min, 517 nm
Protocol: The DPPH assay is widely used, and the simplest and fastest in vitro method for evaluating the antioxidant power of extracts or isolated compounds; it is based on the depletion of the 2,2-diphenyl-1-picrylhydrazyl radical (DPPH˙) by an antioxidant molecule with scavenger activity. This is an extremely sensitive test that can detect the activity of active ingredients present in very low concentrations.
The procedure used was adapted from Wang et al.. Briefly, 0.750 mL of a methanolic solution of each tested compound was treated with 1.5 mL of DPPH solution (0.004%) in MeOH. Samples were stored in the dark at room temperature for 30 min, and the absorbance value was read with a spectrophotometer at 517 nm, which is the maximum peak of absorbance relative to the DPPH radical absorption spectra. The values obtained were fitted into Equation (1) and converted to inhibition percentage (%) of the radical:DPPH inhibition percentage (%) = 100 × [1 − A1/A0](1) where A1 and A0 were, respectively, the absorbance recorded with and without the sample, which are directly proportional to DPPH residual concentration in the sample and DPPH concentration in the control (0.750 of MeOH and 1.5 mL of DPPH solution). […] A linear regression was performed to calculate the sample concentration able to eliminate 50% of DPPH free radicals.

[4] = test system: Colo-38 cell line; test: Pro-apoptotic activity (Annexin V method), Colo-38; assay type: cell-based, human; conditions: for Dead (%) / Early Apoptosis (%) / Late Apoptosis (%): 24 h; for total apoptosis: Colo-38, 24 h, concentrations approaching IC50
Protocol: The Annexin V assay was conducted at two concentrations approaching IC50 values toward the selected cell lines reported in Table 3. The complete set of data is reported in Table 4, while representative data from the analysis of the corresponding Muse Analyzer plots are shown in Figure 2.
Apoptosis assays were performed with a Muse® Cell Analyzer instrument (Merck Millipore, Burlington, MA, USA) and the kit on Colo-38 and HaCat cell lines according to the manufacturer’s protocol. Cells were treated and exposed to the compounds for 24 h. This procedure is based on the detection of PS (PhosphatidylSerine) exposed on the external membrane of apoptotic cells by Annexin V. Four populations of cells can be distinguished using this assay: live, early apoptotic, late apoptotic and dead cells. The MUSE cell analyzer can discriminate “early” from “late” apoptosis since “early apoptotic cells” are Annexin V-positive and 7-AAD-negative, while “late apoptotic cells” are positive to both Annexin V and 7-AAD (7-aminoactinomycin D). The DNA intercalating molecule 7AAD (7-aminoactinomycin D) is used as an indicator of cell membrane integrity, since it binds DNA only in cells undergoing late apoptosis/death stage, when the membrane integrity is lost. Muse Annexin V and Dead Cell reagent were used to dilute the cells (1:1). After 20 min of incubation between cell samples and the kit at room temperature in the dark, the samples were analyzed using 0.01% Triton X-100 as positive control. The data were acquired and recorded using the Annexin V and Dead Cell software module (Millipore, Billerica, MA, USA).

ε (molar extinction coefficient) [1]	λmax [1]	DPPH IC50 [3]	Compound	IC50 [2]	DPPH (% Inhibition) [3]	Dead (%) ([4]; Colo-38, 5 µM)	Early Apoptosis (%) ([4]; Colo-38, 5 µM)	Late Apoptosis (%) ([4]; Colo-38, 5 µM)	Dead (%) ([4]; Colo-38, 50 µM)	Early Apoptosis (%) ([4]; Colo-38, 50 µM)	total apoptosis [4]	Dead (%) ([4]; Colo-38, 10 µM)	Early Apoptosis (%) ([4]; Colo-38, 10 µM)	Late Apoptosis (%) ([4]; Colo-38, 10 µM)	Late Apoptosis (%) ([4]; Colo-38, 50 µM)
32240.17	335.6 nm	–	O=C(/C=C/c1ccc(O)cc1)Nc1nc2ccccc2s1 [BZTcin2, (E)-N-(benzo[d]thiazol-2-yl)-3-(4-hydroxyphenyl)acrylamide]	> 100 µM	12.37 ± 0.00%	2.05%	1.70%	16.90%	4.45%	1.85%	over 30%	–	–	–	–
22387.64	347.7 nm	4.86 ± 0.38 µg/mL	O=C(/C=C/c1ccc(O)c(O)c1)Nc1nc2ccccc2s1 [BZTcin4, (E)-N-(benzo[d]thiazol-2-yl)-3-(3,4-dihydroxyphenyl)acrylamide]	38.1 ± 5.13 µM	>90.00%	1.00%	3.85%	8.50%	–	–	does not induce apoptosis at any of the concentrations tested	1.35%	3.20%	8.00%	–
20688.20	342.0 nm	–	COc1ccc(/C=C/C(=O)Nc2nc3ccccc3s2)cc1O [BZTcin5, (E)-N-(benzo[d]thiazol-2-yl)-3-(3-hydroxy-4-methoxyphenyl)acrylamide]	83.3 ± 5.79 µM	40.15 ± 0.18%	–	–	–	3.50%	1.40%	> 20%	3.75%	1.80%	21.40%	16.25%
28637.64	335.3 nm	–	O=C(N/N=C/c1ccc(O)cc1)c1nc2ccccc2s1 [BZTidr2, (E)-N′-(4-hydroxybenzylidene)benzo[d]thiazole-2-carbohydrazide]	> 100 µM	54.80 ± 1.63%	–	–	–	–	–	–	–	–	–	–

Reference: PMC9822352, “Design, Synthesis and Evaluation of New Multifunctional Benzothiazoles as Photoprotective, Antioxidant and Antiproliferative Agents” (Molecules, 2022)
